Experimental data as given in patent US20210253603A1, “MAIN GROUP METAL COMPLEX AND ITS PREPARATION METHOD AND USE” (PEKING UNIVERSITY, priority 2018, published 2021).

Tests used:
[1] = tested on: normal colonic epithelial cells NCM460; assay: In vitro anticancer activities of complexes (Experiment 2); assay type: cell-based; conditions: NCM460, 24 hours
Description: (§1) The cell lines used in the experiments were obtained from Peking University.

human microglia CHEM5 = assay: as above; assay type: cell-based; conditions: CHEM 5, 24 hours
Description: as §1

HepG2 = assay: as above; assay type: cell-based; conditions: HepG 2, 24 hours
Description: as §1

[2] = tested on: human umbilical vein endothelial cells HUVEC; assay: as above; assay type: cell-based; conditions: 24 hours
Method: as §1
The safety index (SI) was calculated according to the following equation:
^bSafety Index (SI)=IC50(HUVEC)/IC50(Hela)

SW480 = assay: as above; assay type: cell-based, human; conditions: SW480, 24 hours
Description: as §1

HeLa [3] = assay: as above; assay type: cell-based, human; conditions: 24 hours
Description: as §1

A375 = assay: as above; assay type: cell-based, human; conditions: A375, 24 hours
Description: as §1

MCF7 [4] = assay: as above; assay type: cell-based, human; conditions: MCF7, 24 hours
Description: as §1

A549 [5] = assay: as above; assay type: cell-based, human; conditions: A549, 24 hours
Description: as §1

[6] = tested on: A375 human malignant melanoma cell line; assay: Cytotoxicity, CCK-8 kit, multi-cell lines (Experiment 1); conditions: A375, 24 hours
[7] = tested on: COS7 renal epithelial cells; assay: as above; assay type: cell-based; conditions: COS7, 24 hours
A549 [8] = assay: as above; conditions: A549, 24 hours
Method: (§2) The cells were cultured in a cell incubator containing 5% CO2 under the atmosphere of saturated steam at a constant temperature of 37° C. The medium used was a high-sugar Dulbecco's modified Eagle's medium containing 10% fetal bovine serum, 100 μg/mL penicillin and 100 U/mL streptomycin. The cells were grown in a six-well culture plate and passaged every other day. The cytotoxicity of the complex was evaluated by the CCK-8 kit, in which the cells were passed to a 96-well plate containing about 25,000 of cells and 200 µL of medium in each well. After the cells had grown stably and adherently, the medium was changed to complete mediums with different concentrations of the complex to be detected, and a 3-well parallel experiment was performed for each concentration. After culturing in the incubator for 24 hours, the medium was removed and the cells were washed with 100 L of PBS buffer (pH=7.4) for 3 times. Subsequently, 100 L mixture of 10% CCK-8 solution and 90% serum-free medium was added into both the test wells and the control wells, and then was placed in an incubator for culturing. After about 1 hour, the absorption of 450 nm wavelength light in the test and control wells were measured by using a microplate reader, and the cell viabilities (CV) under different concentrations of the complex were calculated according to the following formula: […]

HeLa tumors = assay: In vivo tumor suppression experiment; parameters: species or system nude mice; conditions: after 21 days of treatment, once every 2 days
Method: Nude mice carrying HeLa tumors were divided into 4 […], each with 8 mice. […] The dosage was […], and the administration frequency was once every 2 days. The volume of the tumor was calculated with the length and width of the tumor according to the following formula:
Tumor volume (mm^3)=½×length×width^2.
After 21 days, the nude mice of each group were died and dissected. The tumor inhibition was calculated according to the following formula: […]
in which Wc and Wt were the masses of the tumors in the control group and the experimental group, respectively.

[9] = tested on: HEK293 human renal epithelial cell line; assay: Cytotoxicity, CCK-8 kit, multi-cell lines (Experiment 1); assay type: cell-based; conditions: HEK293, 24 hours
[10] = tested on: MDA-MB-231 highly metastatic breast cancer cell line; assay: as above; assay type: cell-based; conditions: MDA-MB-231, 24 hours
Raw264.7 = assay: as above; assay type: cell-based; conditions: Raw264.7, 24 hours
[11] = H&E staining analysis of major organs; assay type: in vivo, nude mice; conditions: after treatment
Description: Further, the parts such as heart, spleen, lung, liver, and kidney were subjected to the H&E staining analysis.

[12] = tested on: HepG2 liver cancer cell lines; assay: Cytotoxicity, CCK-8 kit, multi-cell lines (Experiment 1); assay type: cell-based; conditions: HepG 2, 24 hours
HeLa [13] = assay: as above; conditions: 24 hours
Method: as §2

[14] = Hematological analysis of liver and kidney function; assay type: in vivo, nude mice; conditions: blood samples after treatment
Description: The research indicators included alanine aminotransferase (ALT), urea nitrogen (BUN), triglycerides (TG), creatine kinase (CK), aspartate aminotransferase (AST), creatinine (CREA), high Density lipoprotein (HDLC), and lactate dehydrogenase (LDH).
The kidney function was related to the blood indicators of BUN and CREA and the liver function. The results about alanine aminotransferase (ALT) and aspartate aminotransferase (AST) in the blood of nude mice were shown in FIG. 8.

MCF7 [15] = assay: Cytotoxicity, CCK-8 kit, multi-cell lines (Experiment 1); conditions: MCF7, 24 hours
[16] = tested on: DU145 prostate cancer cells; assay: as above; assay type: cell-based; conditions: DU145, 24 hours

Structure (SMILES)	IC50 [1] [µM]	IC50 (human microglia CHEM5) [µM]	IC50 (HepG2) [µM]	IC50 [2] [µM]	IC50 (SW480) [µM]	IC50 (HeLa [3]) [µM]	IC50 (A375) [µM]	IC50 (MCF7 [4]) [µM]	IC50 (A549 [5]) [µM]	also measured
CC#[N+][Ga-3]123([N+]#CC)[O]c4ccccc4C=[N+]1C(C#N)=C(C#N)[N+]2=Cc1ccccc1[O]3.Cl [Complex 4]	27.7	1.64	43.5	6.37	0.59	75.3	2.2	134	1.16	–
CC#[N+][Ga-3]123([N+]#CC)[O]c4cc(N(C)CCCC)ccc4C=[N+]1C(C#N)=C(C#N)[N+]2=Cc1ccc(N(C)CCCC)cc1[O]3.Cl [Complex 13]	20.6	2.28	20.9	3.5	4.1	21.5	0.9	1.74	2.72	–
C#CCN(C)c1ccc2c(c1)[O][Ga-3]13([N+]#CC)([N+]#CC)[O]c4cc(N(CC)CC)ccc4C=[N+]1C(C#N)=C(C#N)[N+]3=C2.Cl [Complex 2]	4.26	2.82	8.19	1.88	2.2	6.35	0.83	5.29	2.29	–
CC#[N+][Ga-3]123([N+]#CC)[O]c4cc5c(cc4C=[N+]1C(C#N)=C(C#N)[N+]2=Cc1cc2c(cc1[O]3)N(C)CCS2)SCCN5C.Cl [Complex 12]	89.9	44.7	34.6	58.9	42.6	45.8	10.8	43.5	39.3	–
CC#[N+][Ga-3]123([N+]#CC)[O]c4cc(N(CC)CC)ccc4C=[N+]1c1ccncc1[N+]2=Cc1ccc(N(CC)CC)cc1[O]3.Cl [Complex 15]	340	298	89.7	75.8	325	97.4	215	204	273	–
CC#[N+][Ga-3]123([N+]#CC)[O]c4cc(N(C)C)ccc4C=[N+]1C(C#N)=C(C#N)[N+]2=Cc1ccc(N(C)C)cc1[O]3.Cl [Complex 6]	6.44	2.27	7.75	4.09	4.85	1.38	0.07	0.47	1.38	–
N.N.[Cl][Pt][Cl] [cisplatin, reference compound]	–	–	–	–	–	–	–	–	–	IC50 [6]: 3.4 ± 0.3 µM; IC50 [7]: 6.7 ± 0.6 µM; IC50 (A549 [8]): 9.4 ± 1.5 µM; tumor inhibition (HeLa tumors): 29.9%; IC50 [9]: 2 ± 0.1 µM; IC50 [10]: 27 ± 1.3 µM; IC50 (Raw264.7): 10.1 ± 1.2 µM; H&E staining of liver and kidney [11]: liver edema and degeneration and kidney swelling; IC50 [12]: 5.3 ± 0.1 µM; IC50 (HeLa [13]): 5.3 ± 0.3 µM; effects on liver and kidney function (blood indicators ALT, AST, BUN, CREA) [14]: acute toxicity against the liver and the kidney; IC50 (MCF7 [15]): 9.1 ± 0.9 µM; IC50 [16]: 2.7 ± 0.1 µM
CC#[N+][Ga-3]123([N+]#CC)[O]c4c(ccc5c4SCCN5C)C=[N+]1C(C#N)=C(C#N)[N+]2=Cc1ccc2c(c1[O]3)SCCN2C.Cl [Complex 10]	322	51.9	72.7	332	451	87.7	91.2	61.7	124	–
CC#[N+][Ga-3]123([N+]#CC)[O]c4ccccc4C=[N+]1c1ccccc1[N+]2=Cc1ccccc1[O]3.Cl [Complex 14]	212	65.1	38.6	163	257	19.5	24	53	76.5	–
CC#[N+][Ga-3]123([N+]#CC)[O]c4cc(N5CCCC5)ccc4C=[N+]1C(C#N)=C(C#N)[N+]2=Cc1ccc(N2CCCC2)cc1[O]3.Cl [Complex 7]	23.1	5.71	10.3	2.47	7.58	8.61	1.4	14.2	3.56	–
CC#[N+][Ga-3]123([N+]#CC)[O]c4cc(N(CC)CC)ccc4C=[N+]1c1ccccc1[N+]2=Cc1ccc(N(CC)CC)cc1[O]3.Cl [Complex 9]	33.5	1.81	46.1	9.33	4.89	12.4	1.37	34.8	1.22	–
C#CCN(C)c1ccc2c(c1)[O][Ga-3]13([N+]#CC)([N+]#CC)[O]c4cc(N(C)CC#C)ccc4C=[N+]1C(C#N)=C(C#N)[N+]3=C2.Cl [Complex 8]	71	236	291	203	572	260	229	190	139	–
